Source: patent EP2332529A1, “Substituted aromatic diamines as ligands of vesicular glutamate transporter 1 and 2 (vGLUT1 and vGLUT2)” (Grünenthal GmbH, priority 2009, dated 2011)
Read-outs that look alike come from different tables or passages of the source.

Experiments:
[1] = tested on: vGLUT1- bzw. vGLUT2-Transporter; assay: Glutamate uptake in rat crude synaptic vesicles ([3H]-glutamate); assay type: biochemical, Ratte; settings: for vGLUT (Ratte), Hemmung [%]: test concentration not given
Text: Die agonistische bzw. antagonistische Wirkung der zu untersuchenden Verbindungen am vGLUT1- bzw. vGLUT2-Transporter der Spezies Ratte kann mit folgendem Assay bestimmt werden.
Glutamat-Uptake in Rattenvesikel ('rat crude synaptic vesicles')
Die Präparation von Vesikeln wurde aus Rattengehirn-Homogenaten (männlichen Ratten, Stamm Wistar SPF, 150-250 g Gewicht) durchgeführt gemäß Roseth et al. (1995) J. Neurochem. 65: 96-103, der sich auf Whittaker et al. (1964) Biochem J. 90, 293-303 und Fykse und Fonnum (1988) J. Neurochem. 50: 1237-1242 bezieht.
Hierzu wurden frisch entnommene Rattengehirne in 0,32 M Saccharose, 10 mM TRIS-maleat, 1 mM EGTA, pH 7,4 (10 ml/g Frischgewicht) mit einem Potter-Homogenisator (Fa. Braun/Melsungen; 5 Kolbenhübe bei 800 Upm) unter Eiskühlung homogenisiert und anschließend für 10 Minuten bei 3.000 g und 4°C zentrifugiert. Der resultierende Überstand wurde bei 20.000 g für 30 Minuten bei 4°C zentrifugiert. Das entstandene Pellet wurde dann im Verhältnis 1:3 mit 10 mM TRIS-maleate, 0,1 mM EGTA, pH 7,4 osmotisch geschockt und die Suspension bei 17000g für 30 min (4°C) zentrifugiert. Die im Überstand verbliebenen Vesikel wurden nun auf einen Dichtegradienten aus 0,6 M Saccharose in 10 mM TRIS-maleat, 1 mM EGTA, pH 7.4 und 0.4 M Saccharose in 10 mM TRIS-maleat, 1 mM EGTA, pH 7.4 geschichtet. Eine Ultrazentrifugation der Gradienten im Ausschwingrotor bei 65000g für 2h (4°C) schloss sich an. Die Vesikel-Fraktion wurde von der 0.4 M Saccharose-Bande isoliert und im Uptake-Versuch eingesetzt.
Die Substratlösung für den Uptake von [^3H]-Glutamat bestand aus ATP (neutralisiert mit Trisma base; 2 mM im Endansatz), Glutamat (0.5 mM im Endansatz) und ^3H-Glutamat (0.5 µCi im Endansatz). In 14 ml-Reagiergefäßen (Sarstedt, Artikel-Nr.: 798438) wurden jeweils 0,3 ml Gesamtvolumina (n=2/Probe) pipettiert in der folgenden Reihenfolge: 1.) 165 µl Inkubationspuffer (110 mM Kaliumtartrat, 10 mM TRIS-maleat, pH 7,4, 4 mM MgCl2), 2.) 10 µl Testsubstanz oder Vehikelkontrolle oder blank, 3.) 100 µl synaptische Vesikel. Es schloss sich eine Vorinkubation von 15 min bei 30°C an (nur blank-Ansätze befanden sich hierbei auf Eis). Danach wurde der Uptake durch Zugabe von 25 µl der oben beschriebenen Substratlösung gestartet. Die Reaktion wurde nach 5 min durch Zugabe von 7,0 ml eiskalter 150 mM KCl gestoppt. Anschließend wurden die Proben mit Hilfe des Brandel Cell Harvesters Typ M-24R über einen Membranfilter der Porengröße 0,8 µm abgesaugt und zweimal mit eiskalter 150 mM KCl nachgewaschen. Die Messung erfolgte am beta-Counter nach 15 h in 10 ml Szintillatorflüssigkeit (Filter Count).

NMRI-Mäuse = assay: Phenylquinone-induced writhing test in the mouse; assay type: in vivo; settings: 10 mg/kg
Text: Die Untersuchung der Verbindungen der allgemeinen Formel (I) auf analgetische Wirksamkeit wurde im Phenylchinon-induzierten Writhing an der Maus, modifiziert nach I.C. Hendershot und J. Forsaith (1959) J. Pharmacol. Exp. Ther. 125, 237-240 durchgeführt. Die entsprechende Literaturbeschreibung wird hiermit als Referenz eingeführt und gilt als Teil der Offenbarung.
Dazu wurden männliche NMRI-Mäuse mit einem Gewicht von 25 bis 30 g verwendet. Gruppen von 10 Tieren pro Verbindungsdosis erhielten 10 Minuten nach intravenöser Gabe der zu untersuchenden Verbindungen 0,3 ml/Maus einer 0.02%igen wässrigen Lösung von Phenylchinon (Phenylbenzochinon, Fa. Sigma, Deisenhofen, Deutschland; Herstellung der Lösung unter Zusatz von 5 Gew.-% Ethanol und Aufbewahrung im Wasserbad bei 45°C) intraperitoneal appliziert. Die Tiere wurden einzeln in Beobachtungskäfige gesetzt. Mit Hilfe eines Drucktastenzählers wurde die Anzahl der schmerzinduzierten Streckbewegungen (sogenannte Writhingreaktionen = Durchdrücken des Körpers mit Abstrecken der Hinterextremitäten) 5 bis 20 Minuten nach der Phenylchinon-Gabe ausgezählt. Als Kontrolle wurden Tiere mit geführt, die Vehikellösung (i.v.) und Phenylchinon (i.p.)erhalten hatten. Alle Verbindungen wurden in der Standarddosierung von 10 mg/kg getestet. […]

Sprague-Dawley Ratten = assay: Neuropathic pain in the rat, Bennett model (chronic constriction injury, cold allodynia); assay type: in vivo, Ratte
Method: Die Untersuchung auf Wirksamkeit im neuropathischen Schmerz wurde im Bennett-Modell (chronic constriction injury; Bennett und Xie, 1988, Pain 33: 87-107) untersucht.
Sprague-Dawley Ratten mit einem Gewicht von 140-160 g werden unter Nembutal-Narkose mit vier losen Ligaturen des rechten nervus ischiaticus versehen. Die Tiere entwickeln an der vom geschädigten Nerv innervierten Pfote eine Überempfindlichkeit, die nach einer Erholungsphase von einer Woche über etwa vier Wochen mittels einer 4°C kalten Metallplatte quantifiziert wird (Kälte-Allodynie). Die Tiere werden für einen Zeitraum von 2 min. auf dieser Platte beobachtet und die Anzahl der Wegziehreaktionen der geschädigten Pfote wird gemessen. Bezogen auf den Vorwert vor Substanzapplikation wird die Substanzwirkung über einen Zeitraum von einer Stunde an vier Zeitpunkten (15, 30, 45, 60 min. nach Applikation) bestimmt und die resultierend Fläche unter der Kurve (AUD) sowie die Hemmung der Kälte-Allodynie zu den einzelnen Messpunkten in Prozent Wirkung zur Vehikelkontrolle (AUD) bzw. zum Ausgangswert (Einzelmesspunkte) ausgedrückt (%MPE). Die Gruppengröße beträgt n=10, die Signifikanz einer anti-allodynischen Wirkung wird über eine Varianzanalyse (repeated measures ANOVA; * p ≤ 0.05; Armitage und Berry, 1987, Stat. Methods in Medical Research, London: Blackwell Scientific Publications) bestimmt.

Mäusen (NMRI) = assay: Formalin test in the mouse (second phase); assay type: in vivo; settings: Maus i.p., 21,5 mg/kg
Text: Die Untersuchung zur Bestimmung der antinociceptiven Wirkung der Verbindungen der allgemeinen Formel (I) wird im Formalin-Test an männlichen Mäusen (NMRI, 25 bis 35 g Körpergewicht, Iffa, Credo, Belgien) durchgeführt.
Im Formalin-Test werden gemäß D. Dubuisson et al., Pain 1977, 4, 161-174 die erste (frühe) Phase (0 bis 15 Minuten nach der Formalin-Injektion) und die zweite (späte) Phase (15 bis 60 Minuten nach der Formalin-Injektion) unterschieden. Die frühe Phase stellt als direkte Reaktion auf die Formalin-Injektion ein Modell für Akutschmerz dar, während die späte Phase als Modell für persistierenden (chronischen) Schmerz angesehen wird (T. J. Coderre et al., Pain 1993, 52, 259-285). Die entsprechenden Literaturbeschreibungen werden hiermit als Referenz eingeführt und gelten als Teil der Offenbarung. […]
Anschließend wird für einen Untersuchungszeitraum von drei Minuten in der zweiten (späten) Phase des Formalin-Tests (21 bis 24 Minuten nach der Formalin-Injektion) das nociceptive Verhalten durch Beobachtung der Tiere kontinuierlich erfasst. Die Quantifizierung des Schmerzverhaltens erfolgt durch Summation der Sekunden, in denen die Tiere in dem Untersuchungszeitraum ein Lecken und Beißen der betroffenen Pfote zeigen. […]

[2] = compound freshly dissolved from the solid substance, read-out: vGLUT (Ratte), IC50-Fest

Row | Compound | IC50 [1, 2] [µM] | vGLUT (Ratte), Hemmung [%] [1] [%] | IC50 ([1]; read-out: vGLUT (Ratte), IC50) [µM] | further results
1 | 2,2'-(3,3'-Sulfonyl-bis-(4,1-phenylen)-bis-(azanediyl))-bis-(oxomethylen)-bis-(azanediyl)dibenzoesäure [Beispiel 10] | 2.35 | 86 | – | –
2 | O=C(Cc1ccccc1)Nc1ccc(Cc2ccc(NC(=O)Cc3ccccc3)c(C(=O)O)c2)cc1C(=O)O [Beispiel 1, 5,5'-Methylen-bis(2-(2-phenylacetamido)benzoesäure)] | – | 61 | 9.16 | –
3 | CC(=O)Nc1cc(C(=O)c2ccc(C(=O)O)c(NC(C)=O)c2)ccc1C(=O)O [Beispiel 2, 4,4'-Carbonyl-bis(2-acetamidobenzoesäure)] | – | 47 | – | –
4 | O=C(c1ccc(C(=O)O)c(NC(=O)c2cccc3ccccc23)c1)c1ccc(C(=O)O)c(NC(=O)c2cccc3ccccc23)c1 [Beispiel 3, 4,4'-Carbonyl-bis(2-(1-naphthamido)benzoesäure)] | – | 97 | 0.38 | –
5 | Nc1ccccc1C(=O)Nc1ccc(-c2ccc(NC(=O)c3ccccc3N)c(C(=O)O)c2)cc1C(=O)O [Beispiel 4, 4,4'-Bis-(2-amino-benzoylamino)-biphenyl-3,3'-dicarbonsäure] | 0.093 | 99 | 0.0432 | –
6 | O=C(O)c1cc(-c2ccc(NC(=O)c3cccc4ccccc34)c(C(=O)O)c2)ccc1NC(=O)c1cccc2ccccc12 [Beispiel 5, 4,4'-Bis-[(naphthalin-1-carbonyl)-amino]-biphenyl-3,3'-dicarbonsäure] | – | 50 | – | –
7 | Nc1ccccc1C(=O)Nc1ccc(-c2ccc(NC(=O)c3ccccc3N)c(C(=O)O)c2)cc1C(=O)O [Beispiel 6, 4,4'-Bis-(2-aminobenzamido)biphenyl-3,3'-dicarbonsäure] | 0.038 | 101 | 0.0897 | –
8 | O=C(O)c1cc(NC(=O)c2cccc3ccccc23)c(C(=O)O)cc1NC(=O)c1cccc2ccccc12 [Beispiel 7, 2,5-Bis-[(naphthalin-1-carbonyl)-amino]-terephthalsäure] | – | 78 | 2.34 | –
9 | Cc1ccc(S(=O)(=O)Nc2ccc(-c3ccc(NS(=O)(=O)c4ccc(C)cc4)c(C(=O)O)c3)cc2C(=O)O)cc1 [Beispiel 8, 4,4'-Bis-(4-methylphenylsulfonamid)biphenyl-3,3'-dicarbonsäure, Dinatriumsalz] | 0.49 | 92 | – | Phenylchinon-Writhing-Test Maus i.v. [Anzahl Writhing-Reaktionen in 15 min. p. appl.] (NMRI-Mäuse; Kontrolle 9,1±0,41): 7,8±1,16@10 mg/kg,; Anzahl Tiere mit ≤ 3 Writhing-Reaktionen (NMRI-Mäuse; Maus i.v.): (Anzahl Tiere mit ≤ 3 Writhing-Reaktionen: 1); Bennett-Test Ratte; Hemmung [%] (Sprague-Dawley Ratten; Ratte, 4,64 mg/kg (i.v.)): 37%@ 4,64 mg/kg (i.v.); Formalin-Test Maus i.p.; Hemmung [%] (Mäusen (NMRI)): 51%@21,5 mg/kg
10 | Cc1ccc(S(=O)(=O)Nc2ccc(Cc3ccc(NS(=O)(=O)c4ccc(C)cc4)c(C(=O)O)c3)cc2C(=O)O)cc1 [Beispiel 9, 5,5'-Methylen-bis(2-(4-methylphenylsulfonamido)benzoesäure)] | – | 47 | – | –
11 | Cc1ccc(S(=O)(=O)Nc2ccc(-c3ccc(NS(=O)(=O)c4ccc(C)cc4)c(C(=O)O)c3)cc2C(=O)O)cc1 [Beispiel 11, 4,4'-Bis(tolyl-4-sulfonylamino)biphenyl-3,3'-dicarbonsäure] | 1.53 | 97 | – | –
12 | O=C(Nc1ccc(-c2ccc(NC(=O)c3ccccc3)c(C(=O)[O-])c2)cc1C(=O)[O-])c1ccccc1.[Na+].[Na+] [Beispiel 12, 4,4'-Bis-(benzamido)-biphenyl-3,3'-dicarbonsäure, Dinatriumsalz] | 0.039 | 102 | – | Bennett-Test Ratte; Hemmung [%] (Sprague-Dawley Ratten; Ratte, 0,2 mg/kg/5 ml (i.p)): 38%@0,2 mg/kg/5 ml (i.p)
13 | Nc1ccccc1C(=O)Nc1ccc(-c2ccc(NC(=O)c3ccccc3N)c(C(=O)O)c2)cc1C(=O)O [Beispiel 13, 4,4'-Bis-(2-aminobenzamido)biphenyl-3,3'-dicarbonsäure, Dinatriumsalz] | 0.6 | 96 | – | –
14 | Nc1ccc(-c2ccc(N)c(C(=O)O)c2)cc1C(=O)O [Beispiel 14, 4,4'-Bisaminobiphenyl-3,3'-dicarbonsäure, Dinatriumsalz] | 47.8 | 24 | – | –
